Laboratory results published in patent US11207427B2, “System and method for diagnosis of astrocytic brain tumor” (Dignity Health, priority 2012, dated 2021).
Entries after “also recorded” stand apart in the source; their conditions may differ.

Experiments:
[1] = tested on: human glioma cells in a rodent xenograft; assay: In vivo labeling after intra-arterial injection of fixable SR101; design: species or system rat; details: brains processed two hours post-injection
From the text: Twenty days post-implantion, rats were deeply anesthetized using the previously described ketamin/xylazine mixture. The rats were then intra-arterially injected with Texas red hydrazide. Two hours post-injection brains were perfused, fixed, and sectioned on a cryostat. Sections were mounted on slides and imaged with a Zeiss LSM 710 confocal microscope.

[2] = tested on: GFAP-positive astrocytoma cells (U251); assay: Fixable SR101 co-labeling with GFAP in astrocytoma xenograft acute slices, confocal stereology; assay type: cell-based, human astrocytoma cells implanted in nude rats; details: for cells positive for fixable SR101 in astrocytoma tumor regions: tumor core, acute slices, GFAP and DAPI counterstain
Protocol: (§1) Xenograft acute slices were incubated with the fixable version of SR101 (Texas Red Hydrazide; Sigma), washed at room temperature, and fixed with 4% paraformaldehyde for 12 hours at 4 degrees C. Slices were then rinsed in phosphate buffered saline, permeabilized with 0.3% triton, and blocked with CAS block (Invitrogen) (reference Pierre's paper). GBM xenograft slices were incubated 12-hours in anti-GFAP primary antibody (Millipore; 1:500), and Lymphoma sections were incubated 12-hours in anti-CD20 primary antibody (Millipore; 1:250). Sections were then rinsed and incubated with AlexaFluor488 secondary antibody (Invitrogen), followed by nuclear counterstaining with Dapi (Invitrogen). Fluorescently labeled sections were mounted on slides with vectashield (Vector labs) and No1.5 coverslips (VWR).
We randomly selected one rostral, midline, and caudal acute slice from each brain containing tumor incubated with fixable SR101. Glioma slices were immunofluorescently stained for GFAP, and slices containing lymphoma were stained for CD20. Ten randomly selected 150 um^2 tumor areas in each slice were optically sectioned to 50 um with a Zeiss 710LSM. The first […] of each image stack was discarded to minimize counts from cells damaged during sectioning. A maximum intensity projection image was generated from the remaining 45 um, and a stereology dissector was overlaid onto the image. Cells within the dissector, and those in contact with its left and bottom edges were counted for either GFAP or CD20 positivity, and for SR101 positivity. The percent overlap between immunostaining and SR101 positivity was calculated. […]
(§2) Next, we incubated acute slices from astrocytoma and CNS lymphoma animal models with fixable-SR101 and quantified the staining localization to GFAP for astrocytoma slices and CD20 for lymphoma slices. We adapted standard stereology approaches to quantify tumor cells labeled with fixable-SR101 and GFAP or CD20 antibodies. […]

[3] = tested on: human brain tumor biopsies; assay: SR101 staining of fresh human brain tumor biopsies, confocal imaging; assay type: cell-based
Protocol: This research was approved by the institutional review board at St. Joseph's Hospital and Medical Center and all surgery was performed at the Barrow Neurological Institute. All subjects were consented pre-operatively for participation. Samples were obtained at the time of craniotomy from within the tumor mass at a location determined to be safe by the surgeon. The samples, averaging 4×2×2 mm in size, were transferred into ice-cold artificial cerebrospinal fluid (aCSF) containing 5 uM SR101. Samples were then transferred from the operating room to the laboratory, rinsed with aCSF (10 minutes), and immediately imaged.
(§3) SR101-labeled samples were placed in uncoated No. 1.5 glass-bottom dishes and positioned on the stage of a Zeiss 710 laser scanning confocal microscope equipped with a 40×/1.2 NA water emersion objection. We imaged SR101 by exciting the fluorophore with a 561 nm diode laser and collecting 595 nm-625 nm emission. The confocal aperature was set to Airy unit for all imaging. The laser and gain values were set to fill the dynamic range of the photomultiplier tube, and the frame size was set to sample at nyquist. Images were collected in 8 and 12 bit format absent of non-linear processing. An unstained adjacent tissue sample was imaged with each sample. In some cases, large field-of-view tiled and optically sectioned images were rapidly acquired using a Zeiss line-sweeping confocal microscope. Frame size for this system was fixed to 512×512 by a linear charged coupled device (CCD) array.
After we identified SR101's ability to rapidly label and differentiate astrocytoma cells and reactive astrocytes in animal models, we tested its utility as an intraoperative diagnostic agent. We determined the feasibility of intraoperatively identifying astrocytic brain tumors by confocal fluorescence imaging of fresh human brain tumor biopsies labeled with SR101. We screened samples from 60* patients with a total of 10 common human brain tumor types. The diagnosis as determined by traditional immunohistochemistry and paraffin-embedded hematoxylin and eosin histopathology was accepted as the final diagnosis for the purposes of comparison.
Tissue samples were transported in artificial cerebrospinal fluid and imaged within 30-40 minutes of resection. We first found SR101 filled the cytoplasm of astrocytes in non-tumor burdened brain (FIG. 4A). Next, we studied tissue sampled from tumor margins and found SR101 filled the cytoplasm of reactive astrocytes and tumor cells in these regions (FIG. 4B). […] At higher magnification we observed that SR101 delineated some cell nuclei and identified nuclear atypia which is a common feature of some gliomas (FIG. 4C).

[4] = tested on: CD20 positive lymphoma cells (MC116); assay: SR101 / fixable SR101 staining and CD20 co-labeling in CNS lymphoma xenograft acute slices, confocal stereology; assay type: cell-based, human CNS lymphoma cells implanted in nude rats
Protocol: as §1, with “Fluorescently labeled sections were mounted on slides with vectashield (Vector labs) and No1.5 coverslips (VWR).” left out
We randomly selected one rostral, midline, and caudal acute slice from each brain containing tumor incubated with fixable SR101. […] Cells within the dissector, and those in contact with its left and bottom edges were counted for either GFAP or CD20 positivity, and for SR101 positivity. The percent overlap between immunostaining and SR101 positivity was calculated. […]
as §2

U251 derived tumor = assay: SR101 staining of acute slices from U251 rodent xenografts, confocal imaging; assay type: cell-based, human astrocytoma cells implanted in nude rats
Protocol: Animals were anesthetized by intramuscular injection of a mixture of 10 mg/kg xylazine and 80 mg/kg ketamine (Wyeth, Madison, N.J.) and placed in a small animal stereotactic headframe (Model 900, David Kopf Instruments, Tujunga, Calif.). A 10-mm incision was made starting between the animal's eyes, exposing bregma. A bur hole was made 3.5 mm lateral to bregma. U251 or MC116 cells were infused at a depth of 4.5 mm below the surface of the brain after the syringe (Hamilton) was advanced 5.0 mm to create a 0.5-mm pocket. The cell suspension was infused using a UMP3-1 UltraMicroPump microinjector (WPI, Sarasota, Fla.) set to a volume of […] with an infusion rate of 3.00 μL/minute. The needle was withdrawn 2 minutes after the injection to minimize backflow of the cell suspension. The bur hole was covered with bone wax and the skin incision was sutured.
Twenty days post-implantation, rats were deeply anesthetized using the xylazine/ketamine mixture as described previously. Animals were rapidly decapitated, brains were removed, and coronal cortical slices (350 μm thick) were cut on a vibratome (Trent's aCSF protocol). Slices were then incubated at room temperature in aCSF containing 5 uM SR101 for 20 minutes followed by a 10 minute wash in aCSF.
as §3, with “Frame size for this system was fixed to 512×512 by a linear charged coupled device (CCD) array.” left out

[5] = tested on: human glioma cell line U251; assay: In vitro SR101 labeling of cultured astrocytoma cells; assay type: cell-based; details: 5 uM SR101, 20 minutes, DIC imaging with fluorescence overlay
Protocol: We acquired human glioma cell line U251 and human CNS lymphoma cell line MC116 from ATCC. Cells were maintained in culture with DMEM media supplemented with 10% FBS, and RPMI media supplemented with 20% FBS respectively (all from Invitrogen, Grand Island, N.Y.). Cells were grown at 37° C. in a humidified incubator under 5% CO2.
We labeled U251 glioma cells by seeding a collagen-coated glass-bottom dish (MatTek) with 100,000 cells. After 24 hours, media was replaced with aCSF containing 5 uM SR101 (Sigma) for 20 minutes, followed by two 5 minute washes with standard aCSF.
as §3, with “Frame size for this system was fixed to 512×512 by a linear charged coupled device (CCD) array.” left out

| SMILES | in vivo labeling of tumor cells and tumor margin [1] | cells positive for fixable SR101 in astrocytoma tumor regions [2] | cells positive for fixable SR101 in astrocytoma tumor regions ([2]; listed as Fixable-SR101) | staining of human lymphoma ([3]; human biopsies) | astrocytoma cases selectively stained ([3]; human biopsies versus final diagnosis) | staining of cells from astrocytoma tumor cores ([3]; human biopsies, 5 uM SR101) | staining of non-astrocytic tumor samples / other CNS neoplasms ([3]; human biopsies, 5 uM SR101) | labeling of low grade human oligodendroglioma samples ([3]; human biopsies, samples often GFAP positive) | co-localization with GFAP-positive cells in astrocytoma regions ([2]; U251 xenograft acute slices, fixable SR101, stereology) [%] | co-localization with CD20 positive cells in lymphoma tumor regions ([4]; MC116 xenograft acute slices, fixable SR101, stereology) [%] | SR101 signal / cells labeled in lymphoma regions ([4]; acute slices from nude rats implanted with human CNS lymphoma cells) | mean fluorescence intensity (MFI), tumor (U251 derived tumor; SR101-labeled tumor core, acute slice, 5 uM SR101 20 minutes) | mean fluorescence intensity (MFI), background (U251 derived tumor; background of SR101-labeled tumor core image, acute slice) | difference in mean fluorescence intensity between U251 cells and reactive astrocytes (U251 derived tumor; normalized to background, n=9 optical sections from 3 acute slices) | SR101 labeling of cultured U251 astrocytoma cells [5] |
| --- | --- | --- | --- | --- | --- | --- | --- | --- | --- | --- | --- | --- | --- | --- | --- |
| NNS(=O)(=O)c1ccc(C2=c3cc4c5c(c3Oc3c2cc2c6c3CCCN6CCC2)CCC[N+]=5CCC4)c(S(=O)(=O)[O-])c1 [fixable SR101, Texas Red Hydrazide] | specific in vivo labeling of human glioma cells | majority of cells were positive | labeled the majority of cells |  |  |  |  |  |  |  |  |  |  |  |  |
| O=S(=O)([O-])c1cc(S(=O)(=O)O)ccc1C1=c2cc3c4c(c2Oc2c1cc1c5c2CCCN5CCC1)CCC[N+]=4CCC3 [SR101, Sulforhodamine 101] |  |  |  | negative; also recorded: failed to stain | 14 of 15 | strong cytoplasmic staining | did not stain; also recorded: non-specific background staining | does not stain; also recorded: did not label | 79.6 | 1.97 | minimal; also recorded: small number of cells | 102.84 | 8.74 | no statistically significant difference; also recorded: did not differ | filled the cytoplasm of the cultured cell and clearly delineated cell nuclei |
